{"source": "paper PMC12332667", "about": "“Role of Structural Modifications in Peptidomimetic Compounds as Potential Antimicrobial Agents against Staphylococcus aureus and Streptococcus pyogenes: Balancing Bioavailability, Safety, and Antimicrobial Activity” (ACS Omega, 2025)", "key": {"P. vulgaris ATCC 6896": {"test_system": "P. vulgaris ATCC 6896", "assay": "MIC/MBC broth microdilution, P. vulgaris", "type": "cell-based, Proteus vulgaris", "in_short": "(§1)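 Standard NCCLS broth microdilution in BHI broth, inoculum approx. 10^5 CFU/mL, serially diluted peptidomimetics, 18 h at 37 °C. MIC was the lowest concentration with no obvious growth (≥90% inhibition versus untreated); MBC was the lowest giving ≤3 colonies on subculture (≥99.9% kill).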"}, "fibroblasts (46BR.1N)": {"test_system": "fibroblasts (46BR.1N)", "assay": "LDH cytotoxicity test, fibroblasts", "type": "cell-based", "settings": "48 h, 50-150 μg/mL", "in_short": "(§2)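 HaCaT keratinocytes and 46BR.1N fibroblasts, 5000 cells per well, grown 24 h, then exposed to peptidomimetics at 50, 100 and 150 μg/mL in serum-free medium for 48 h. LDH release in supernatant read at 450 nm, normalized to untreated (0%) and 1% Triton X-100 (maximal) controls.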"}, "[1]": {"assay": "Hydrophobicity by reverse-phase chromatography", "type": "physicochemical", "settings": "acetonitrile content in the mobile phase at the retention time", "in_short": "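Reverse-phase chromatography of peptidomimetics; hydrophobicity expressed as percent acetonitrile in the mobile phase at each compound's retention time.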"}, "S. mutans c.i.": {"test_system": "S. mutans c.i.", "assay": "MIC/MBC broth microdilution, S. mutans", "type": "cell-based, Streptococcus mutans", "in_short": "as §1"}, "E. coli ATCC 25922": {"test_system": "E. coli ATCC 25922", "assay": "MIC/MBC broth microdilution, E. coli", "type": "cell-based, Escherichia coli", "in_short": "as §1"}, "P. aeruginosa ATCC 10145": {"test_system": "P. aeruginosa ATCC 10145", "assay": "MIC/MBC broth microdilution, P. aeruginosa", "type": "cell-based", "in_short": "as §1"}, "S. intemrdius c.i.": {"test_system": "S. intemrdius c.i.", "assay": "MIC/MBC broth microdilution, S. intermedius", "type": "cell-based, Staphylococcus intermedius", "in_short": "as §1"}, "E. faecalis c.i.": {"test_system": "E. faecalis c.i.", "assay": "MIC/MBC broth microdilution, E. faecalis", "type": "cell-based, Enterococcus faecalis", "in_short": "as §1"}, "[2]": {"test_system": "human dermal fibroblast cell line (46BR.1N)", "assay": "XTT cell proliferation assay, fibroblasts", "type": "cell-based", "in_short": "(§3)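 Cells at 37 °C, 5% CO2 received peptidomimetics in serum-free HG-DMEM for 48 or 72 h; for 72 h, half the medium was renewed and peptide re-added at 48 h. XTT reagent was then incubated 4 h and absorbance read at 490 nm; Mann–Whitney U test, p ≤ 0.05.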"}, "[3]": {"test_system": "immortalized human keratinocytes (HaCaT)", "assay": "LDH cytotoxicity test, keratinocytes", "type": "cell-based", "settings": "48 h, 50-150 μg/mL", "in_short": "as §2"}, "S. aureus ATCC 43300": {"test_system": "S. aureus ATCC 43300", "assay": "MIC/MBC broth microdilution, S. aureus", "type": "cell-based, Staphylococcus aureus", "settings": "S. aureus"}, "S. pyogenes ATCC 19615": {"test_system": "S. pyogenes ATCC 19615", "assay": "MIC/MBC broth microdilution, S. pyogenes", "type": "cell-based, Streptococcus pyogenes", "settings": "S. pyogenes", "in_short": "as §1"}, "S. cohnii c.i.": {"test_system": "S. cohnii c.i.", "assay": "MIC/MBC broth microdilution, S. cohnii", "type": "cell-based, Staphylococcus cohnii", "in_short": "as §1"}, "S. schleiferi c.i.": {"test_system": "S. schleiferi c.i.", "assay": "MIC/MBC broth microdilution, S. schleiferi", "type": "cell-based, Staphylococcus schleiferi", "settings": "water additive EtOH", "in_short": "as §1"}, "[4]": {"test_system": "K. pneumoniae ATCC 700603", "assay": "MIC/MBC broth microdilution, K. pneumoniae", "type": "cell-based", "in_short": "as §1"}, "[5]": {"test_system": "immortalized human HaCaT keratinocytes", "assay": "XTT cell proliferation assay, keratinocytes", "type": "cell-based", "in_short": "as §3"}, "[6]": {"settings": "XTT, 48 and 72 h, 0.01–150 μg/mL"}, "[7]": {"settings": "up to 150 μg/mL, A-193 and A-179 after 48 h"}}, "note": "“And” between values parts separate entries of the source, which are not always exact repeats. Equal values may be shown once.", "data": [{"smiles": "CC(C)[C@@H](CNC(=O)C(=Cc1ccccc1)c1ccccc1)NC(=O)[C@H](CCCNC(=N)N)NC(=O)[C@H](CCCNC(=N)N)NC(=O)OCc1ccccc1", "note": "[Compound A-179]", "values": [{"measurement": "MIC", "setting": "P. vulgaris ATCC 6896; H2O", "value": "> 512", "unit": "µg/mL"}, {"measurement": "MIC", "setting": "P. vulgaris ATCC 6896; water additive DMSO", "value": "> 512", "unit": "µg/mL"}, {"measurement": "MIC", "setting": "P. vulgaris ATCC 6896; water additive EtOH", "value": "> 512", "unit": "µg/mL"}, {"measurement": "cytotoxicity (LDH), in words", "setting": "fibroblasts (46BR.1N)", "value": "less pronounced in fibroblasts"}, {"measurement": "% AcCN (acetonitrile required for elution from the column)", "setting": "[1]", "value": "49.8% and 44.8–49.8%"}, {"measurement": "MIC", "setting": "S. mutans c.i.; H2O", "value": "> 512", "unit": "µg/mL"}, {"measurement": "MIC", "setting": "S. mutans c.i.; water additive DMSO", "value": "> 512", "unit": "µg/mL"}, {"measurement": "MIC", "setting": "S. mutans c.i.; water additive EtOH", "value": "> 512", "unit": "µg/mL"}, {"measurement": "MIC", "setting": "E. coli ATCC 25922; H2O", "value": "> 512", "unit": "µg/mL"}, {"measurement": "MIC", "setting": "E. coli ATCC 25922; water additive DMSO", "value": "> 512", "unit": "µg/mL"}, {"measurement": "MIC", "setting": "E. coli ATCC 25922; water additive EtOH", "value": "> 512", "unit": "µg/mL"}, {"measurement": "MIC", "setting": "P. aeruginosa ATCC 10145; H2O", "value": 256, "unit": "µg/mL"}, {"measurement": "MIC", "setting": "P. aeruginosa ATCC 10145; water additive DMSO", "value": "> 512", "unit": "µg/mL"}, {"measurement": "MIC", "setting": "P. aeruginosa ATCC 10145; water additive EtOH", "value": "> 512", "unit": "µg/mL"}, {"measurement": "MBC", "setting": "S. intemrdius c.i.; H2O", "value": 32, "unit": "µg/mL"}, {"measurement": "MIC", "setting": "S. intemrdius c.i.; H2O", "value": 16, "unit": "µg/mL"}, {"measurement": "MBC", "setting": "S. intemrdius c.i.; water additive DMSO", "value": 32, "unit": "µg/mL"}, {"measurement": "MIC", "setting": "S. intemrdius c.i.; water additive DMSO", "value": 16, "unit": "µg/mL"}, {"measurement": "MBC", "setting": "S. intemrdius c.i.; water additive EtOH", "value": 16, "unit": "µg/mL"}, {"measurement": "MIC", "setting": "S. intemrdius c.i.; water additive EtOH", "value": 16, "unit": "µg/mL"}, {"measurement": "MBC", "setting": "E. faecalis c.i.; water additive DMSO", "value": 256, "unit": "µg/mL"}, {"measurement": "MIC", "setting": "E. faecalis c.i.; water additive DMSO", "value": 256, "unit": "µg/mL"}, {"measurement": "MBC", "setting": "E. faecalis c.i.; water additive EtOH", "value": 256, "unit": "µg/mL"}, {"measurement": "effect on proliferation, in words", "setting": "[2]; [6]", "value": "negative impact"}, {"measurement": "antiproliferative effect (decrease vs control)", "setting": "[2]; [7]", "value": "~50", "unit": "%"}, {"measurement": "cytotoxicity (LDH), in words", "setting": "[3]", "value": "cytotoxic to keratinocytes at all concentrations"}, {"measurement": "MBC", "setting": "S. aureus ATCC 43300; H2O", "value": 32, "unit": "µg/mL"}, {"measurement": "MIC", "setting": "S. aureus ATCC 43300; H2O", "value": 32, "unit": "µg/mL"}, {"measurement": "MBC", "setting": "S. aureus ATCC 43300; water additive DMSO", "value": 32, "unit": "µg/mL"}, {"measurement": "MIC", "setting": "S. aureus ATCC 43300; water additive DMSO", "value": 16, "unit": "µg/mL"}, {"measurement": "MBC", "setting": "S. aureus ATCC 43300; water additive EtOH", "value": 32, "unit": "µg/mL"}, {"measurement": "MIC", "setting": "S. aureus ATCC 43300; water additive EtOH", "value": 32, "unit": "µg/mL"}, {"measurement": "MBC", "setting": "S. pyogenes ATCC 19615; H2O", "value": 32, "unit": "µg/mL"}, {"measurement": "MIC", "setting": "S. pyogenes ATCC 19615; H2O", "value": 16, "unit": "µg/mL"}, {"measurement": "MBC", "setting": "S. pyogenes ATCC 19615; water additive DMSO", "value": 32, "unit": "µg/mL"}, {"measurement": "MIC", "setting": "S. pyogenes ATCC 19615; water additive DMSO", "value": 16, "unit": "µg/mL"}, {"measurement": "MBC", "setting": "S. pyogenes ATCC 19615; water additive EtOH", "value": 32, "unit": "µg/mL"}, {"measurement": "MIC", "setting": "S. pyogenes ATCC 19615; water additive EtOH", "value": 8, "unit": "µg/mL"}, {"measurement": "MBC", "setting": "S. cohnii c.i.; H2O", "value": 32, "unit": "µg/mL"}, {"measurement": "MIC", "setting": "S. cohnii c.i.; H2O", "value": 16, "unit": "µg/mL"}, {"measurement": "MBC", "setting": "S. cohnii c.i.; water additive DMSO", "value": 32, "unit": "µg/mL"}, {"measurement": "MIC", "setting": "S. cohnii c.i.; water additive DMSO", "value": 32, "unit": "µg/mL"}, {"measurement": "MIC", "setting": "S. cohnii c.i.; water additive EtOH", "value": 32, "unit": "µg/mL"}, {"measurement": "MBC", "setting": "S. schleiferi c.i.", "value": 256, "unit": "µg/mL"}, {"measurement": "MIC", "setting": "[4]; H2O", "value": 512, "unit": "µg/mL"}, {"measurement": "MIC", "setting": "[4]; water additive DMSO", "value": "> 512", "unit": "µg/mL"}, {"measurement": "MIC", "setting": "[4]; water additive EtOH", "value": "> 512", "unit": "µg/mL"}, {"measurement": "effect on proliferation, in words", "setting": "[5]; [6]", "value": "negative impact"}, {"measurement": "antiproliferative effect (decrease vs control)", "setting": "[5]; [7]", "value": "~50", "unit": "%"}]}]}
